Assay results: ChEMBL document CHEMBL2163324, “Function of the D-alanine:D-alanine ligase lid loop: a molecular modeling and bioactivity study” (J Med Chem, 2012)
pIC50, pKi: −log10 of the molar value.

Tests used:
[1] = Inhibition of Escherichia coli DdlB after 20 mins by malachite green staining-based colorimetric assay; conditions: for pIC50: read-out: IC50
[2] = tested on: Escherichia coli; test: Inhibition of Escherichia coli DdlB at 500 uM after 20 mins by malachite green staining-based colorimetric assay
[3] = tested on: Escherichia coli; test: Inhibition of Escherichia coli DdlB at 250 uM after 20 mins by malachite green staining-based colorimetric assay
[4] = Competitive inhibition of Escherichia coli DdlB after 20 mins by malachite green staining-based colorimetric assay in presence of ATP

SMILES | IC50 [1] | inhibition [2] | pIC50 [1] | inhibition [3] | pKi [4]
N/C(=N\OC(=O)Nc1ccc(Cl)cc1)c1cnccn1 | ND(Insoluble) | 77% | – | – | –
N/C(=N/OC(=O)c1ccc2nsnc2c1)c1ncon1 | ND(Insoluble) | 78% | – | – | –
Cc1cc(C(=N)NOC(=O)Nc2ccc(Cl)cc2)no1 | – | 61% | 3.18 | – | –
COc1ccc2c(C)nc(Nc3nc(O)cc(O)n3)nc2c1 | ND(Insoluble) | – | – | 70% | –
O=C1NC(=O)C(=C(O)Nc2ccccc2)C(=O)N1 | – | 63% | 3.21 | – | –
O=C(N/N=C/c1cc(=O)[nH]c(O)n1)c1ccncc1 | ND(Insoluble) | 62% | – | – | –
N/C(=N\OC(=O)Nc1cccc(Cl)c1)c1ccno1 | – | 48% | 3.42 | – | 3.49
